Laboratory results: patent US20230235358A1, “HOST DEFENSE SUPPRESSING METHODS AND COMPOSITIONS FOR MODULATING A GENOME” (FLAGSHIP PIONEERING INNOVATIONS VI, LLC, priority 2020, published 2023)

Key:
[1] = tested on: primary human dermal fibroblasts; assay: Gene Writing efficiency (GFP flow cytometry / ddPCR) with BAY 11-7082; type: cell-based; conditions: addition of BAY11
Experimental: (§1) In this example, primary human dermal fibroblasts (ATCC PCS-201-012) are cultured according to ATCC instructions. Cells are nucleofected (Lonza Nucleofector®) with the following samples: • 1. mRNA encoding Gene Writer polypeptide targeting AAVS1+Gene Writer RNA template carrying a GFP reporter gene • 2. Condition (1) with genetically inactivated Gene Writer polypeptide • 3. Condition (1)+BAY 11-7082 • 4. Condition (1)+BAY 11-7082+IFN-beta
(§2) Gene Writing efficiency is measured from cultured cells 3 days after transfection by flow cytometry to assay the percentage of cells expressing GFP or by digital droplet PCR analysis with primers and probe on the junction between the template sequence and the targeted locus and on reference sequences as previously described (see PCT/US2019/048607). […] In some embodiments, the addition of BAY11 will increase one or both of the expression of the Gene Writer polypeptide, and the stability of the RNA template. In some embodiments, the addition of […] will also reduce cytotoxicity, e.g., cytotoxicity that is due to intracellular immune pathways.

[2] = tested on: primary human dermal fibroblasts; assay: Cytotoxicity (PrestoBlue) three days post transfection, Example 3; type: cell-based; conditions: addition of BAY11
Experimental: as §1, §2

human skin cells = conditions: cited from earlier work
mouse liver = assay: LNP-mediated delivery of firefly luciferase mRNA to the mouse liver (luciferase activity of liver homogenate); type: in vivo; conditions: C57BL/6 mice, i.v. 1 mg/kg, 6, 24, 48 hours, FIG. 2
Experimental: To measure the effectiveness of LNP-mediated delivery of firefly luciferase containing particles to the liver, LNPs were formulated and characterized as described in Example 9 and tested in vitro prior (Example 10) to administration to mice. C57BL/6 male mice (Charles River Labs) at approximately 8 weeks of age were dosed with LNPs via intravenous (i.v.) route at 1 mg/kg. Vehicle control animals were dosed i.v. with 300 μL phosphate buffered saline. Mice were injected via intraperitoneal route with dexamethasone at 5 mg/kg 30 minutes prior to injection of LNPs. Tissues were collected at necropsy at or 6, 24, 48 hours after LNP administration with a group size of 5 mice per time point. Liver and other tissue samples were collected, snap-frozen in liquid nitrogen, and stored at −80° C. until analysis.
Frozen liver samples were pulverized on dry ice and transferred to homogenization tubes containing lysing matrix D beads (MP Biomedical). Ice-cold 1×luciferase cell culture lysis reagent (CCLR) (Promega) was added to each tube and the samples were homogenized in a Fast Prep-24 5G Homogenizer (MP Biomedical) at 6 m/s for 40 seconds. The samples were transferred to a clean microcentrifuge tube and clarified by centrifugation. Prior to luciferase activity assay, the protein concentration of liver homogenates was determined for each sample using the Pierce™ BCA Protein Assay Kit (ThermoFisher Scientific) according to the manufacturer's instructions. Luciferase activity was measured with 200 μg (total protein) of liver homogenate using the luciferase assay reagent (Promega) according to manufacturer's instructions using an i3X SpectraMax plate reader (Molecular Devices). […] Reporter activity by the various formulations followed the ranking LIPIDV005>LIPIDV004>LIPIDV003. RNA expression was transient and enzyme levels returned near vehicle background by 48 hours. Post-administration. This assay validated the use of these ionizable lipids and their respective formulations for RNA systems for delivery to the liver.

| SMILES | Expression of the Gene Writer polypeptide and/or stability of the RNA template [1] | Cytotoxicity due to intracellular immune pathways [2] | Expression of OCT4 from synthetic mRNA (human skin cells) | Reporter (luciferase) activity in liver, ranking of formulations (mouse liver) |
| --- | --- | --- | --- | --- |
| Cc1ccc(S(=O)(=O)/C=C/C#N)cc1 [BAY11, BAY 11-7082] | increase | reduce | improve |  |
| CCCCC/C=C\C/C=C\CCCCCCCC(=O)OCC(COC(=O)CCC(OCCCCCCCC)OCCCCCCCC)COC(=O)OCCCN(CC)CC (stereo not drawn) [LIPIDV003] |  |  |  | LIPIDV005>LIPIDV004>LIPIDV003 |
| CCCCCCCCCOC(=O)CCCCCCCN(CCO)CCCCCCCC(=O)OC(CCCCCCCC)CCCCCCCC [LIPIDV004] |  |  |  | LIPIDV005>LIPIDV004>LIPIDV003 |
| CCCCCCCC(=O)N(CCCN(C)C)C(CCCCCCCCC(=O)OC(CCCCCC)CCCCCC)CCCCCCCCC(=O)OC(CCCCCC)CCCCCC [LIPIDV005] |  |  |  | LIPIDV005>LIPIDV004>LIPIDV003 |
